This is an account of results in patent US8258138B2, “Potassium channel blockers” (Xention Limited, priority 2008, dated 2012).

Structures are written as SMILES.

For the assay, the target named is T1, human Kv1.3 (Homo sapiens, UniProt P22001).
T1 construct: expressed in transfected cells; host or cells: stably transfected cells grown in medium for CHO cells
T1 sequence (P22001 whole entry): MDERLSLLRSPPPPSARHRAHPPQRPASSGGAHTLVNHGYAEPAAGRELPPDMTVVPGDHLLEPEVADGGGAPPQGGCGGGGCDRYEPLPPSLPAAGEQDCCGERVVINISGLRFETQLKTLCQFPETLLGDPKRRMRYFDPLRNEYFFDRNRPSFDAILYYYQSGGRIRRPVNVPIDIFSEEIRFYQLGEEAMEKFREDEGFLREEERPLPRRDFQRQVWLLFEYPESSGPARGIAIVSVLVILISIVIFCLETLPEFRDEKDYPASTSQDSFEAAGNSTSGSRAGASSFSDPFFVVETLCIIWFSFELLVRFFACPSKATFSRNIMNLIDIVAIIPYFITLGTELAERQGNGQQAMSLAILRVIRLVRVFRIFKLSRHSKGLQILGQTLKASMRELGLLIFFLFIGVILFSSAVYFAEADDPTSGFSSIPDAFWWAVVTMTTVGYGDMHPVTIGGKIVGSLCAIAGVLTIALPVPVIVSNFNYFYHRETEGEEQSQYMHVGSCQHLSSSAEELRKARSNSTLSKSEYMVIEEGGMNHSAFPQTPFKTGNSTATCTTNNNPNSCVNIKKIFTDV
Description: Kv1.3 Autopatch electrophysiology (whole cell patch-clamp, inhibition of charge movement). Type of assay: cell-based. The conditions noted are these: compound at 1 μM; cells stably transfected with human Kv1.3; room temperature; total charge during step to +30 mV relative to control; read-out: hKv1.3 % inh. The method, then: Kv1.3 Autopatch Electrophysiology Method
Compounds were tested on these cells using the AutoPatch technology in whole cell mode.
The external bathing solution contained (in mM): 150 NaCl, 10 KCl, 1 MgCl2, 3 CaCl2, 10 HEPES, pH 7.4 with NaOH. Patch pipettes were filled with an electrode solution of composition (in mM): 100 K-Gluconate, 20 KCl, 1 MgCl2, 1 CaCl2, 10 HEPES, 11 EGTA, 5 ATP-Na2, 2 Glutathione pH 7.2 with KOH.
Compounds were dissolved in DMSO (100%) and made up in the external bather at a concentration of 1 μM immediately prior to use. All experiments were conducted at room temperature.
A cell suspension (10 ml), with a density of 6×10^6 cells, was aliquoted into a 15 ml centrifuge tube and stored at 4° C. before use. Prior to use a tube was taken and centrifuged at 1000 rpm for 4 mins at room temperature. The supernatant was then discarded, leaving a cell pellet at the bottom of the tube. The pellet was then resuspended using 1 ml of cold (4° C.), filtered (0.22 μm), 0.05% BSA/bather solution (0.05 g BSA/100 ml bather). The bottom of the tube was manually agitated followed by gentle tituration. The cell suspension was then placed in the AutoPatch™ temperature controlled cell-hotel at 14° C. and regularly titurated.
A length of Teflon capillary tubing was dipped into the cell suspension solution, and a column of fluid was taken up by negative pressure. The column of fluid was in electrically connectivity with a Ag/AgCl reference electrode. Borosilicate glass patch pipettes (from 1.5 mm OD, thin-walled filamented, GC150-TF capillary glass, Harvard) were pulled using a DMZ pipette puller (Zeitz Instruments), and were back-filled using the internal pipette solution, being careful that no bubbles remained at the tip or in the body of the pipette. Patch pipettes typically had resistances of 2.5-3.5 MΩ. Once filled, the pipette tip and a proportion of the shaft (˜15 mm) were dipped into Sigmacote (Sigma). The recording pipettes were placed in a multiwell array and mounted on the AutoPatch™ machine. Automated patch-clamping and drug-application was initiated by the operator, but thereafter AutoPatch.exe continued the experiment providing that pre-set conditions and criteria were satisfied.
Whole cell patch-clamp recordings were made using the AutoPatch™ rig, which incorporated an EPC9 or EPC10 amplifier (HEKA, Germany) under control of Pulse software (v8.54 or v8.76, HEKA, Germany), a cell applicator, automated drug application system (DAS), valve controller (VF1) and a suction device all at room temperature. This equipment was completely under the control of AutoPatch.exe and operator intervention was only made when there was a requirement to refill the bather reservoirs or to prevent the loss of a cell due to a technical error.
Cells were continuously perfused with external solution at a flow rate of ˜2 ml/minute.
Electrophysiology voltage-step protocols and analysis of data was performed as follows. Data were sampled at 5 kHz, and filtered with a −3 dB bandwidth of 2.5 kHz. Cells were held at a voltage of −80 mV. Currents were evoked by a voltage step to +30 mV for 500 ms in duration applied every 15 s. Online analysis of the hKv1.3 current during the application of compounds was performed by the Pulse (v8.54 or v8.76, HEKA, Germany), Excel (Microsoft, USA) and AutoPatch™ software, with the total charge measured during the whole of voltage step. Inhibition of charge movement in the presence of drug was calculated relative to control.
For orientation: Patch clamp records ionic current or voltage across a cell membrane.
Turning to `CN(C)S(=O)(=O)N(Cc1ccccc1)c1ccc(C(=O)N2CCOC(c3ccccc3)C2)cc1F` (stereo not drawn) [Example 73, N-Benzyl-N-[2-fluoro-4-(2-phenyl-morpholine-4-carbonyl)-phenyl]-N′,N′-dimethylsulfamide], the inhibition at 1 µM came out at 67%.

For the molecule `CC1CCCN(C(=O)c2ccc(N(Cc3ccccc3)S(=O)(=O)c3cn(C)cn3)cc2)C1` (stereo not drawn) [Example 74, 1-Methyl-1H-imidazole-4-sulfonic acid benzyl-[4-(3-methyl-piperidine-1-carbonyl)-phenyl]-amide], the inhibition at 1 µM came to 51%.

In the case of `Cn1cnc(S(=O)(=O)N(Cc2ccccc2)c2ccc(C(=O)N3CCN(c4ccccc4F)CC3)cc2)c1` [Example 75, 1-Methyl-1H-imidazole-4-sulfonic acid benzyl-{4-[4-(2-fluoro-phenyl)-piperazine-1-carbonyl]-phenyl}-amide], the inhibition at 1 µM turned out to be 64%.

Regarding `Cn1cnc(S(=O)(=O)N(Cc2ccccc2)c2ccc(C(=O)N3CCN(CC4CCCCC4)CC3)cc2)c1` [Example 76, 1-Methyl-1H-imidazole-4-sulfonic acid benzyl-[4-(4-cyclohexylmethyl-piperazine-1-carbonyl)-phenyl]-amide], the inhibition at 1 µM stood at 45%.

Consider `Cn1cnc(S(=O)(=O)N(Cc2ccccc2)c2ccc(C(=O)N3CCN(c4nccs4)CC3)cc2)c1` [Example 77, 1-Methyl-1H-imidazole-4-sulfonic acid benzyl-[4-(4-thiazol-2-yl-piperazine-1-carbonyl)-phenyl]-amide], for which the inhibition at 1 µM turned out to be 42%.

With `Cn1cnc(S(=O)(=O)N(Cc2ccccc2)c2ccc(C(=O)N3CCCC(C(F)(F)F)C3)cc2)c1` (stereo not drawn) [Example 78, 1-Methyl-1H-imidazole-4-sulfonic acid benzyl-[4-(3-trifluoromethyl-piperidine-1-carbonyl)-phenyl]-amide], the inhibition at 1 µM stood at 74%.

With `Cn1cnc(S(=O)(=O)N(Cc2ccccc2)c2ccc(C(=O)N3CCC(F)(F)CC3)cc2)c1` [Example 79, 1-Methyl-1H-imidazole-4-sulfonic acid benzyl-[4-(4,4-difluoro-piperidine-1-carbonyl)-phenyl]-amide], the inhibition at 1 µM turned out to be 60%.

`Cn1cnc(S(=O)(=O)N(Cc2ccccc2)c2ccc(C(=O)N3CCCC(F)C3)cc2)c1` (stereo not drawn) [Example 80, 1-Methyl-1H-imidazole-4-sulfonic acid benzyl-[4-(3-fluoro-piperidine-1-carbonyl)-phenyl]-amide]: the inhibition at 1 µM came to 30%.

In the case of `Cn1cnc(S(=O)(=O)N(Cc2ccccc2)c2ccc(C(=O)N3CCN(C(=O)OC(C)(C)C)C(c4ccccc4)C3)cc2)c1` (stereo not drawn) [Example 81, 4-{4-[Benzyl-(1-methyl-1H-imidazole-4-sulfonyl)-amino]-benzoyl}-2-phenyl-piperazine-1-carboxylic acid tert-butyl ester], the inhibition at 1 µM turned out to be 57%.

For `Cn1cnc(S(=O)(=O)N(Cc2ccccc2)c2ccc(C(=O)N3CCC(c4ccc(F)cc4)C3)cc2)c1` (stereo not drawn) [Example 82, 1-Methyl-1H-imidazole-4-sulfonic acid benzyl-{4-[3-(4-fluoro-phenyl)-pyrrolidine-1-carbonyl]-phenyl}-amide], the inhibition at 1 µM came out at 78%.

On to `CN1CCN(C(=O)c2ccc(N(Cc3ccccc3)S(=O)(=O)c3cn(C)cn3)cc2)CC1c1ccccc1` (stereo not drawn) [Example 83, 1-Methyl-1H-imidazole-4-sulfonic acid benzyl-[4-(4-methyl-3-phenyl-piperazine-1-carbonyl)-phenyl]-amide], for which the inhibition at 1 µM was found to be 64%.

Take `Cn1ccc(S(=O)(=O)N(Cc2ccccc2)c2ccc(C(=O)N3CCOC(c4ccccc4)C3)cc2)n1` (stereo not drawn) [Example 84, 1-Methyl-1H-pyrazole-3-sulfonic acid benzyl-[4-(2-phenyl-morpholine-4-carbonyl)-phenyl]-amide]: the inhibition at 1 µM amounted to 89%.

In the case of `Cn1ccc(S(=O)(=O)N(Cc2ccc(Cl)cc2)c2ccc(C(=O)N3CCCCC3)cc2)n1` [Example 86, 1-Methyl-1H-pyrazole-3-sulfonic acid (4-chloro-benzyl)-[4-(piperidine-1-carbonyl)-phenyl]-amide], the inhibition at 1 µM is 88%.

For the molecule `Cn1ccc(S(=O)(=O)N(Cc2ccccc2)c2ccc(C(=O)N3CCNC(c4ccccc4)C3)cc2)n1` (stereo not drawn) [Example 88, 1-Methyl-1H-pyrazole-3-sulfonic acid benzyl-[4-(3-phenyl-piperazine-1-carbonyl)-phenyl]-amide], the inhibition at 1 µM came to 46%.

In the case of `Cn1nccc1S(=O)(=O)N(Cc1ccccc1)c1ccc(C(=O)N2CCNC(c3ccccc3)C2)cc1` (stereo not drawn) [Example 89, 2-Methyl-2H-pyrazole-3-sulfonic acid benzyl-[4-(3-phenyl-piperazine-1-carbonyl)-phenyl]-amide], the inhibition at 1 µM was 61%.

Take `CN1CCN(C(=O)c2ccc(N(Cc3ccccc3)S(=O)(=O)c3ccnn3C)cc2)CC1c1ccccc1` (stereo not drawn) [Example 91, 2-Methyl-2H-pyrazole-3-sulfonic acid benzyl-[4-(4-methyl-3-phenyl-piperazine-1-carbonyl)-phenyl]-amide]: the inhibition at 1 µM stood at 81%.

Turning to `CC1CCCN(C(=O)c2ccc(N(Cc3ccc(Cl)cc3)S(=O)(=O)c3cn(C)cn3)cc2)C1` (stereo not drawn) [Example 92, 1-Methyl-1H-imidazole-4-sulfonic acid (4-chloro-benzyl)-[4-(3-methyl-piperidine-1-carbonyl)-phenyl]-amide], the inhibition at 1 µM was 61%.

In the case of `CC1CCCN(C(=O)c2ccc(N(Cc3ccc(F)cc3)S(=O)(=O)c3cn(C)cn3)cc2)C1` (stereo not drawn) [Example 94, 1-Methyl-1H-imidazole-4-sulfonic acid (4-fluoro-benzyl)-[4-(3-methyl-piperidine-1-carbonyl)-phenyl]-amide], the inhibition at 1 µM was found to be 52%.

Take `Cc1ccc(CN(c2ccc(C(=O)N3CCCC(C)C3)cc2)S(=O)(=O)c2cn(C)cn2)cc1` (stereo not drawn) [Example 95, 1-Methyl-1H-imidazole-4-sulfonic acid (4-methyl-benzyl)-[4-(3-methyl-piperidine-1-carbonyl)-phenyl]-amide]: the inhibition at 1 µM is 51%.

In the case of `Cn1cnc(S(=O)(=O)N(Cc2ccc(Cl)c(Cl)c2)c2ccc(C(=O)N3CCCCC3)cc2)c1` [Example 96, 1-Methyl-1H-imidazole-4-sulfonic acid (3,4-dichloro-benzyl)-[4-(piperidine-1-carbonyl)-phenyl]-amide], the inhibition at 1 µM was determined as 48%.

As for `Cn1cnc(S(=O)(=O)N(Cc2ccc(F)c(Cl)c2)c2ccc(C(=O)N3CCCCC3)cc2)c1` [Example 97, 1-Methyl-1H-imidazole-4-sulfonic acid (3-chloro-4-fluoro-benzyl)-[4-(piperidine-1-carbonyl)-phenyl]-amide], the inhibition at 1 µM worked out at 61%.

With `CC1CCCN1C(=O)c1ccc(N(Cc2ccc(Cl)cc2)S(=O)(=O)c2cn(C)cn2)cc1` (stereo not drawn) [Example 98, 1-Methyl-1H-imidazole-4-sulfonic acid (4-chloro-benzyl)-[4-(2-methyl-pyrrolidine-1-carbonyl)-phenyl]-amide], the inhibition at 1 µM amounted to 51%.

`CC1CCN(C(=O)c2ccc(N(Cc3ccc(Cl)cc3)S(=O)(=O)c3cn(C)cn3)cc2)C1` (stereo not drawn) [Example 99, 1-Methyl-1H-imidazole-4-sulfonic acid (4-chloro-benzyl)-[4-(3-methyl-pyrrolidine-1-carbonyl)-phenyl]-amide]: the inhibition at 1 µM was 52%.

`Cn1cnc(S(=O)(=O)N(Cc2ccc(Cl)cc2)c2ccc(C(=O)N3CCC(F)(F)C3)cc2)c1` [Example 100, 1-Methyl-1H-imidazole-4-sulfonic acid (4-chloro-benzyl)-[4-(3,3-difluoro-pyrrolidine-1-carbonyl)-phenyl]-amide]: the inhibition at 1 µM came out at 52%.
